Data: patent publication US20120039847A1, “Hepatitis C Virus Inhibitors” (priority 2010, published 2012)

Tested on: HCV genotype 1b replicon (2209-23 cells, Huh7)
Assay: HCV replicon assay (Renilla luciferase reporter)
Type: cell-based
Conditions: Hepatitis C virus, Huh-7, 72 h, Huh7-derived cell line 2209-23, three days incubation, luciferase readout

## COC(=O)N[C@H](C(=O)N1CCC[C@H]1C(=O)Nc1nccc2cc(-c3ccc(-c4cnc([C@@H]5CCCN5C(=O)[C@@H](NC(=O)OC)C(C)C)[nH]4)cc3)ccc12)C(C)C [I-6, [(S)-1-((S)-2-{5-[4-(1-{[(S)-1-((S)-2-Methoxycarbonylamino-3-methyl-butyryl)-pyrrolidine-2-carbonyl]-amino}-isoquinolin-6-yl)-phenyl]-1H-imidazol-2-yl}-pyrrolidine-1-carbonyl)-2-methyl-propyl]-carbamic acid methyl ester]
  IC50: 13.9 nM

## COC(=O)N[C@H](C(=O)N1CCC[C@H]1C(=O)NC1Cc2ccc(-c3ccc(-c4cnc([C@@H]5CCCN5C(=O)[C@@H](NC(=O)OC)C(C)C)[nH]4)cc3)cc2C1)C(C)C (stereo partly drawn) [I-9, ((S)-1-{(S)-2-[5-(4-{2-[(S)-1-((S)-2-Methoxycarbonylamino-3-methyl-butyryl)-pyrrolidin-2-yl]-3H-imidazol-4-yl}-phenyl)-indan-2-ylcarbamoyl]-pyrrolidine-1-carbonyl}-2-methyl-propyl)-carbamic acid methyl ester]
  IC50: 0.43 nM

## COC(=O)N[C@H](C(=O)N1CCC[C@H]1C(=O)NCc1ccc(-c2ccc(-c3cnc([C@@H]4CCCN4C(=O)[C@@H](NC(=O)OC)C(C)C)[nH]3)cc2)cc1)C(C)C [I-16, ((S)-1-{(S)-2-[(4′-{2-[(S)-1-((S)-2-Methoxycarbonylamino-3-methyl-butyryl)-pyrrolidin-2-yl]-3H-imidazol-4-yl}-biphenyl-4-ylmethyl)-carbamoyl]-pyrrolidine-1-carbonyl}-2-methyl-propyl)-carbamic acid methyl ester]
  IC50: 1.23 nM

## COC(=O)N[C@H](C(=O)N1CCC[C@H]1C(=O)N1CCc2cc(-c3ccc(-c4cnc([C@@H]5CCCN5C(=O)[C@@H](NC(=O)OC)C(C)C)[nH]4)cc3)ccc2C1)C(C)C [I-12, ((S)-1-{(S)-2-[5-(4-{2-[(S)-1-((S)-2-Methoxycarbonylamino-3-methyl-butyryl)-pyrrolidine-2-carbonyl]-1,2,3,4-tetrahydro-isoquinolin-6-yl}-phenyl)-1H-imidazol-2-yl]-pyrrolidine-1-carbonyl}-2-methyl-propyl)-carbamic acid methyl ester]
  IC50: 2.06 nM

## COC(=O)N[C@H](C(=O)N1CCC[C@H]1c1ncc(-c2ccc(-c3ccc4cc(NC(=O)[C@@H]5CCCN5C(=O)C(C)C)ccc4n3)cc2)[nH]1)C(C)C [I-13, ((S)-1-{(S)-2-[5-(4-{6-[((S)-1-Isobutyryl-pyrrolidine-2-carbonyl)-amino]-quinolin-2-yl}-phenyl)-1H-imidazol-2-yl]-pyrrolidine-1-carbonyl}-2-methyl-propyl)-carbamic acid methyl ester]
  IC50: 1.06 nM

## COC(=O)N[C@H](C(=O)N1CCC[C@H]1C(=O)Nc1nc2cc(-c3ccc(-c4cnc([C@@H]5CCCN5C(=O)[C@@H](NC(=O)OC)C(C)C)[nH]4)cc3)ccc2[nH]1)C(C)C [I-8, [(S)-1-((S)-2-{5-[4-(2-{[(S)-1-((S)-2-Methoxycarbonylamino-3-methyl-butyryl)-pyrrolidine-2-carbonyl]-amino}-1H-benzoimidazol-5-yl)-phenyl]-1H-imidazol-2-yl}-pyrrolidine-1-carbonyl)-2-methyl-propyl]-carbamic acid methyl ester]
  IC50: 0.37 nM

## COC(=O)N[C@H](C(=O)N1CCC[C@H]1C(=O)Nc1cccc2cc(-c3ccc(-c4cnc([C@@H]5CCCN5C(=O)[C@@H](NC(=O)OC)C(C)C)[nH]4)cc3)ccc12)C(C)C [I-5, [(S)-1-((S)-2-{5-[4-(5-{[(S)-1-((S)-2-Methoxycarbonylamino-3-methyl-butyryl)-pyrrolidine-2-carbonyl]-amino}-naphthalen-2-yl)-phenyl]-1H-imidazol-2-yl}-pyrrolidine-1-carbonyl)-2-methyl-propyl]-carbamic acid methyl ester]
  IC50: 0.2 nM

## COC(=O)N[C@H](C(=O)N1CCC[C@H]1C(=O)Nc1ccc2nc(-c3ccc(-c4cnc([C@@H]5CCCN5C(=O)[C@@H](NC(=O)OC)C(C)C)[nH]4)cc3)ccc2c1)C(C)C [I-3, ((S)-1-{(S)-2-[2-(4-{2-[(S)-1-((S)-2-Methoxycarbonylamino-3-methyl-butyryl)-pyrrolidin-2-yl]-3H-imidazol-4-yl}-phenyl)-quinolin-6-ylcarbamoyl]-pyrrolidine-1-carbonyl}-2-methyl-propyl)-carbamic acid methyl ester]
  IC50: 0.413 nM

## COC(=O)N[C@H](C(=O)N1CCC[C@H]1C(=O)NC1CCc2cc(-c3ccc(-c4cnc([C@@H]5CCCN5C(=O)[C@@H](NC(=O)OC)C(C)C)[nH]4)cc3)ccc2C1)C(C)C (stereo partly drawn) [I-10, ((S)-1-{(S)-2-[6-(4-{2-[(S)-1-((S)-2-Methoxycarbonylamino-3-methyl-butyryl)-pyrrolidin-2-yl]-3H-imidazol-4-yl}-phenyl)-1,2,3,4-tetrahydro-naphthalen-2-ylcarbamoyl]-pyrrolidine-1-carbonyl}-2-methyl-propyl)-carbamic acid methyl ester]
  IC50: 1.2 nM

## COC(=O)N[C@H](C(=O)N1CCC[C@H]1C(=O)NC1CCc2cc(-c3ccc(-c4cnc([C@@H]5CCCN5C(=O)[C@@H](NC(=O)OC)C(C)C)[nH]4)cc3)ccc21)C(C)C (stereo partly drawn) [I-4, [(S)-1-((S)-2-{5-[4-(1-{[(S)-1-((S)-2-Methoxycarbonylamino-3-methyl-butyryl)-pyrrolidine-2-carbonyl]-amino}-indan-5-yl)-phenyl]-1H-imidazol-2-yl}-pyrrolidine-1-carbonyl)-2-methyl-propyl]-carbamic acid methyl ester]
  IC50: 0.31 nM

## COC(=O)N[C@H](C(=O)N1CCC[C@H]1c1ncc(-c2ccc(-c3ccc4cc(NC(=O)[C@@H]5CCCN5C(=O)c5ccccc5)ccc4n3)cc2)[nH]1)C(C)C [I-15, ((S)-1-{(S)-2-[5-(4-{6-[((S)-1-Benzoyl-pyrrolidine-2-carbonyl)-amino]-quinolin-2-yl}-phenyl)-1H-imidazol-2-yl]-pyrrolidine-1-carbonyl}-2-methyl-propyl)-carbamic acid methyl ester]
  IC50: 1.4 nM

## COC(=O)N[C@H](C(=O)N1CCC[C@H]1C(=O)Nc1ccc2cc(-c3ccc(-c4cnc([C@@H]5CCCN5C(=O)[C@@H](NC(=O)OC)C(C)C)[nH]4)cc3)ccc2n1)C(C)C [I-7, ((S)-1-{(S)-2-[6-(4-{2-[(S)-1-((S)-2-Methoxycarbonylamino-3-methyl-butyryl)-pyrrolidin-2-yl]-3H-imidazol-4-yl}-phenyl)-quinolin-2-ylcarbamoyl]-pyrrolidine-1-carbonyl}-2-methyl-propyl)-carbamic acid methyl ester]
  IC50: 0.15 nM

## COC(=O)N[C@H](C(=O)N1CCC[C@H]1c1ncc(-c2ccc(-c3ccc4cc(NC(=O)[C@@H]5CCCN5C(=O)CC(C)C)ccc4n3)cc2)[nH]1)C(C)C [I-14, [(S)-2-Methyl-1-((S)-2-{5-[4-(6-{[(S)-1-(3-methyl-butyryl)-pyrrolidine-2-carbonyl]-amino}-quinolin-2-yl)-phenyl]-1H-imidazol-2-yl}-pyrrolidine-1-carbonyl)-propyl]-carbamic acid methyl ester]
  IC50: 1.7 nM

## COC(=O)N[C@H](C(=O)N1CCC[C@H]1C(=O)Nc1ccc2cc(-c3ccc(-c4cnc([C@@H]5CCCN5C(=O)[C@@H](NC(=O)OC)C(C)C)[nH]4)cc3)ccc2c1)C(C)C [I-1, ((S)-1-{(S)-2-[6-(4-{2-[(S)-1-((S)-2-Methoxycarbonylamino-3-methyl-butyryl)-pyrrolidin-2-yl]-3H-imidazol-4-yl}-phenyl)-naphthalen-2-ylcarbamoyl]-pyrrolidine-1-carbonyl}-2-methyl-propyl)-carbamic acid methyl ester]
  IC50: 0.041 nM

## COC(=O)N[C@H](C(=O)N1CCC[C@H]1C(=O)NC1CCCc2cc(-c3ccc(-c4cnc([C@@H]5CCCN5C(=O)[C@@H](NC(=O)OC)C(C)C)[nH]4)cc3)ccc21)C(C)C (stereo partly drawn) [I-2, [(S)-1-((S)-2-{5-[4-(5-{[(S)-1-((S)-2-Methoxycarbonylamino-3-methyl-butyryl)-pyrrolidine-2-carbonyl]-amino}-5,6,7,8-tetrahydro-naphthalen-2-yl)-phenyl]-1H-imidazol-2-yl}-pyrrolidine-1-carbonyl)-2-methyl-propyl]-carbamic acid methyl ester]
  IC50: 4 nM

## COC(=O)N[C@H](C(=O)N1CCC[C@H]1c1ncc(-c2ccc(-c3ccc4cc(NC(=O)[C@@H]5CCCN5C(C)=O)ccc4n3)cc2)[nH]1)C(C)C [I-11, ((S)-1-{(S)-2-[5-(4-{6-[((S)-1-Acetyl-pyrrolidine-2-carbonyl)-amino]-quinolin-2-yl}-phenyl)-1H-imidazol-2-yl]-pyrrolidine-1-carbonyl}-2-methyl-propyl)-carbamic acid methyl ester]
  IC50: 0.63 nM
